In ChEMBL document CHEMBL1201862, “PubChem BioAssay data set” (2004):
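These data come from cells grown in 96-well plates and exposed to compound for 48 hours at five concentrations. Abbreviation: GI50, concentration required for 50% inhibition of growth.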 The source made the active and inactive calls. No stated cut-off is given here; in the data, active = GI50 up to about 1.1 µM and inactive = higher.

Experiments:
Assay in all cases: NCI-60 cell line screen, 48 h
OVCAR-8 = test system: OVCAR-8
HCT-116 = test system: HCT-116
SR = test system: SR
NCI/ADR-RES = test system: NCI/ADR-RES
ACHN = test system: ACHN
Malme-3M = test system: Malme-3M
HL-60 = test system: HL-60
MCF7 = test system: MCF7
786-0 = test system: 786-0
CAKI-1 = test system: CAKI-1
LOX IMVI = test system: LOX IMVI
UACC-62 = test system: UACC-62
SF-268 = test system: SF-268
IGROV-1 = test system: IGROV-1
UO-31 = test system: UO-31
SK-MEL-28 = test system: SK-MEL-28
RPMI-8226 = test system: RPMI-8226
MDA-MB-231 = test system: MDA-MB-231
T47D = test system: T47D
SF-539 = test system: SF-539
SNB-19 = test system: SNB-19
NCI-H460 = test system: NCI-H460
U-251 = test system: U-251
UACC-257 = test system: UACC-257
Hs-578T = test system: Hs-578T
RXF 393 = test system: RXF 393
EKVX = test system: EKVX
NCI-H23 = test system: NCI-H23
NCI-H226 = test system: NCI-H226
TK-10 = test system: TK-10
K562 = test system: K562
M14 = test system: M14
SNB-75 = test system: SNB-75
CCRF-CEM = test system: CCRF-CEM
OVCAR-3 = test system: OVCAR-3
A549 = test system: A549
SK-MEL-5 = test system: SK-MEL-5
OVCAR-5 = test system: OVCAR-5
SN12C = test system: SN12C
MDA-N = test system: MDA-N
KM12 = test system: KM12
NCI-H522 = test system: NCI-H522
SF-295 = test system: SF-295
OVCAR-4 = test system: OVCAR-4
HCC 2998 = test system: HCC 2998
HOP-92 = test system: HOP-92
SW-620 = test system: SW-620
HT-29 = test system: HT-29
MOLT-4 = test system: MOLT-4
PC-3 = test system: PC-3
COLO 205 = test system: COLO 205
A498 = test system: A498
SK-MEL-2 = test system: SK-MEL-2
SK-OV-3 = test system: SK-OV-3
MDA-MB-435 = test system: MDA-MB-435
BT-549 = test system: BT-549
HCT-15 = test system: HCT-15
DU-145 = test system: DU-145
LXFL 529 = test system: LXFL 529
DMS-114 = test system: DMS-114
KM-20L2 = test system: KM-20L2
SNB-78 = test system: SNB-78
M19-MEL = test system: M19-MEL
HOP-62 = test system: HOP-62

With `CCCCCCCCCCCC[C@@H](O)[C@H]1CCC([C@H](O)CCCCC(=O)CCCCCCCC2=C[C@H](C)OC2=O)O1` (some centres not stated) the GI50 (OVCAR-8) was 28.5 µM (inactive), the GI50 (HCT-116) was 3.01 µM (inactive) and the GI50 (SR) was 0.0773 µM (active). The GI50 (NCI/ADR-RES) was 12.6 µM (inactive), the GI50 (ACHN) was > 33.6 µM (inactive) and the GI50 (Malme-3M) was > 50 µM (inactive). The GI50 (HL-60) was 0.991 µM (active), the GI50 (MCF7) was 2.45 µM (inactive) and the GI50 (786-0) was > 31.6 µM (inactive). The GI50 (CAKI-1) was > 36.4 µM (inactive), the GI50 (LOX IMVI) was 2.34 µM (inactive) and the GI50 (UACC-62) was 17.4 µM (inactive). For the same molecule, the GI50 (SF-268) was 18.1 µM (inactive), the GI50 (IGROV-1) was > 50 µM (inactive) and the GI50 (UO-31) was 7.16 µM (inactive). The GI50 (SK-MEL-28) was 19.2 µM (inactive), the GI50 (RPMI-8226) was 2.5 µM (inactive) and the GI50 (MDA-MB-231) was > 41.7 µM (inactive). The GI50 (T47D) was 15.7 µM (inactive), the GI50 (SF-539) was > 50 µM (inactive) and the GI50 (SNB-19) was > 28.2 µM (inactive). The GI50 (NCI-H460) was 2.26 µM (inactive), the GI50 (U-251) was 13.3 µM (inactive) and the GI50 (UACC-257) was 7.96 µM (inactive). The GI50 (Hs-578T) was 11.3 µM (inactive), the GI50 (RXF 393) was 11.6 µM (inactive) and the GI50 (EKVX) was 14.1 µM (inactive). The GI50 (NCI-H23) was 0.0957 µM (active), the GI50 (NCI-H226) was 15.8 µM (inactive) and the GI50 (TK-10) was > 50 µM (inactive). For the same molecule, the GI50 (K562) was 2.98 µM (inactive), the GI50 (M14) was 15 µM (inactive) and the GI50 (SNB-75) was > 37.9 µM (inactive). The GI50 (CCRF-CEM) was 4.59 µM (inactive), the GI50 (OVCAR-3) was > 50 µM (inactive) and the GI50 (A549) was 10.4 µM (inactive). For the same molecule, the GI50 (SK-MEL-5) was 0.0315 µM (active), the GI50 (OVCAR-5) was > 50 µM (inactive) and the GI50 (SN12C) was > 39 µM (inactive). The GI50 (MDA-N) was > 35.2 µM (inactive), the GI50 (KM12) was 13.1 µM (inactive) and the GI50 (NCI-H522) was 15.4 µM (inactive). For the same molecule, the GI50 (SF-295) was 20.1 µM (inactive), the GI50 (OVCAR-4) was > 24.9 µM (inactive) and the GI50 (HCC 2998) was > 50 µM (inactive). For the same molecule, the GI50 (HOP-92) was > 27 µM (inactive), the GI50 (SW-620) was > 29.1 µM (inactive) and the GI50 (HT-29) was 14.6 µM (inactive). The GI50 (MOLT-4) was 2.62 µM (inactive), the GI50 (PC-3) was 14.6 µM (inactive) and the GI50 (COLO 205) was 12.5 µM (inactive). For the same molecule, the GI50 (A498) was 26.2 µM (inactive), the GI50 (SK-MEL-2) was > 26.1 µM (inactive) and the GI50 (SK-OV-3) was > 50 µM (inactive). The GI50 (MDA-MB-435) was > 21.3 µM (inactive), the GI50 (BT-549) was 9.06 µM (inactive) and the GI50 (HCT-15) was 17.9 µM. The GI50 (DU-145) was > 50 µM (inactive).

For `CCc1c(O)c(O)c(C(C)=O)c2c(O)c(-c3c(C)cc4c(CC)c(O)c(O)c(C(C)=O)c4c3O)c(C)cc12`, the GI50 (HCT-116) was 4.17 µM (inactive), the GI50 (SR) was 38.3 µM (inactive) and the GI50 (LXFL 529) was 4.56 µM (inactive). The GI50 (ACHN) was 12 µM (inactive), the GI50 (Malme-3M) was 16.7 µM (inactive) and the GI50 (HL-60) was 3.08 µM (inactive). The GI50 (UACC-62) was 7.21 µM (inactive), the GI50 (SF-268) was 11 µM (inactive) and the GI50 (IGROV-1) was 5.52 µM (inactive). For the same molecule, the GI50 (UO-31) was 6.49 µM (inactive), the GI50 (DMS-114) was 5.35 µM (inactive) and the GI50 (SK-MEL-28) was 10.9 µM (inactive). For the same molecule, the GI50 (RPMI-8226) was 3.97 µM (inactive), the GI50 (SF-539) was 9.04 µM (inactive) and the GI50 (SNB-19) was 7.67 µM (inactive). The GI50 (NCI-H460) was 7.73 µM (inactive), the GI50 (U-251) was 8.77 µM (inactive) and the GI50 (KM-20L2) was 4.69 µM (inactive). The GI50 (SNB-78) was 2.9 µM (inactive), the GI50 (UACC-257) was 11.1 µM (inactive) and the GI50 (RXF 393) was 6.85 µM (inactive). For the same molecule, the GI50 (NCI-H23) was 2.82 µM (inactive), the GI50 (K562) was 2.62 µM (inactive) and the GI50 (M14) was 8.75 µM (inactive). For the same molecule, the GI50 (SNB-75) was 14.1 µM (inactive), the GI50 (CCRF-CEM) was 2.7 µM (inactive) and the GI50 (OVCAR-3) was 5.05 µM (inactive). For the same molecule, the GI50 (OVCAR-5) was 18.9 µM (inactive), the GI50 (M19-MEL) was 11.2 µM (inactive) and the GI50 (KM12) was 3.74 µM (inactive). For the same molecule, the GI50 (NCI-H522) was 2.92 µM (inactive), the GI50 (SF-295) was 3.03 µM (inactive) and the GI50 (OVCAR-4) was 11.2 µM (inactive). The GI50 (HOP-92) was 2.78 µM (inactive), the GI50 (HT-29) was 5.15 µM (inactive) and the GI50 (COLO 205) was 6.79 µM (inactive). For the same molecule, the GI50 (SK-MEL-2) was 7.53 µM (inactive), the GI50 (SK-OV-3) was > 10 µM (inactive) and the GI50 (HOP-62) was 13.7 µM (inactive).
